# Source: ChEMBL document CHEMBL2331503, “Hx-amides: DNA sequence recognition by the fluorescent Hx (p-anisylbenzimidazole)•pyrrole and Hx•imidazole pairings” (Bioorg Med Chem Lett, 2013)
# Active and inactive are the calls of the source. The calls are words filed in the database; no cut-off is given here.
# Experiments:
# [1] = Inhibition of 5'-ACCGGT cognate sequence containing 5'-32P labeled 131 base pair DNA (unknown origin) cleavage at 10 to 30 uM DNase I footprinting method
# [2] = Binding affinity to 5'-ACGCGT DNA assessed as change in melting temperature at 3 mol equivalent of compound-DNA
# [3] = Binding affinity to cognate sequence of 5'-ACCGGT DNA at 1 mol equivalent by circular dichroism analysis
# [4] = Binding affinity to 5'-ATGCAT DNA by surface plasmon resonance assay
# [5] = Binding affinity to 5'-AAATTT DNA assessed as change in melting temperature at 3 mol equivalent of compound-DNA
# [6] = Binding affinity to 5'-ACCGGT DNA assessed as change in melting temperature at 3 mol equivalent of compound-DNA
# [7] = Binding affinity to cognate sequence of 5'-ACCGGT DNA by surface plasmon resonance assay
# [8] = Binding affinity to 5'-AGCGCT DNA by surface plasmon resonance assay
smiles,measurement,setting,value
COc1ccc(-c2nc3ccc(C(=O)Nc4cn(C)c(C(=O)Nc5cn(C)c(C(=O)NCCN(C)C)n5)n4)cc3[nH]2)cc1,inhibition,[1],Active
same,ΔTm,[2],0 °C
same,Activity,[3],Active
same,K,[4],1 ×10⁶ /M
same,ΔTm,[5],5 °C
same,ΔTm,[6],5 °C
same,K,[7],2 ×10⁶ /M
same,K,[8],5 ×10⁵ /M
